According to patent publication US6380161B1, “Compositions for treating chemotherapy-resistant tumor cells and targeted chemotherapy compositions” (priority 1999, dated 2002):
“Also recorded” adds a separate entry of the source. Where two headings read alike, the source gives them in different places. Residues, ends and D or L forms follow the SMILES beside them. No end group written: not given here. *: point of attachment. X1 = COc1cccc2c1C(=O)c1c(O)c3c(c(O)c1C2=O)CC(O)(C(=O)CO)C[C@@H]3O[C@H]1C[C@H](N*)[C@H](O)[C@H](C)O1; Acm = CC(=O)NC*

Key:
Human Breast Carcinoma = assay: In vitro LD50 from dose response curves (ALAMAR BLUE cell viability); format: cell-based; details: dose at which half of the cells die
B16-F10 Melanoma = assay: as above; format: cell-based; details: dose at which half of the cells die
Lewis Lung Carcinoma = assay: In vitro LD50 from dose response curves (ALAMAR BLUE cell viability); format: cell-based; details: dose at which half of the cells die
Melanoma tumor cells = assay: Melanoma tumor development (lung tumor colonies) in mice; format: in vivo; details: intraperitoneally 24 and 96 hours after tumor implantation, 18 μM/kg, versus buffer
Procedure: This experiment was designed to evaluate whether the conjugation of the peptide to doxorubicin altered its ability to prevent wild-type, nonresistant tumor development in mice. Melanoma tumor cells were injected into mice. The animals (5 in each group) were treated intraperitoneally 24 and 96 hours after tumor implantation with either buffer alone, Dox-P, the Cys(Acm)-Ser-Val-Thr-Cys(Acm)-Gly (SEQ ID NO: 6) peptide, or Dox, at a concentration of 18 μM/kg. The mice were sacrificed and the melanoma tumor colonies on the lung were counted. […] Additionally, the tumor colonies in the Dox-P and the Dox groups were 2-5 fold smaller than in the buffer group.

Wild-type CHO Cells = assay: Cell viability / in vitro LD50 on wild-type CHO cells (ALAMAR BLUE); format: cell-based
Procedure: (§1) Doxorubicin and multidrug-resistant CHO cells were cultured using standard tissue culture conditions: 37° C., DMEM media, serum free conditions, with 5% CO2 for pH adjustment. The cells were treated for 24 hours with either doxorubicin or Dox-P, the peptide conjugate prepared in Example 1, at concentrations of 0.25, 0.5, 0.75, and 1.0 mM. Untreated cells were used as a negative control.
Cell viability was measured using the ALAMAR BLUE™ assay (available from Biosource International, Camarillo, Calif.). The assay quantitatively measures the proliferation of cell lines and can establish the relative cytotoxicity of chemical agents. The assay incorporates a fluorometric/colorimetric growth indicator based on detection of metabolic activity. The system incorporates an oxidation-reduction (redox) indicator that both fluoresces and changes color in response to chemical reduction of growth medium resulting from cell growth. This causes the redox indicator to change from its oxidized, non-fluorescent, blue form to its reduced, fluorescent, red form. Data can be collected using either fluorescence-based instrumentation (530-560 nm excitation wavelength and 590 nm emission wavelength) or absorbance-based instrumentation (570 nm and 600 nm). […]
The LD50, the dose at which half of the cells die, was calculated from Dox and Dox-P dose response curves for five different cell lines, as shown in Table 1.

[1] = system: Doxorubicin and multidrug-resistant CHO Cells; assay: Cell viability / in vitro LD50 on drug-resistant CHO cells (ALAMAR BLUE); format: cell-based; details: 24 hours, 0.25, 0.5, 0.75 and 1.0 mM
Procedure: as §1
Cell viability was measured using the ALAMAR BLUE™ assay (available from Biosource International, Camarillo, Calif.). The assay quantitatively measures the proliferation of cell lines and can establish the relative cytotoxicity of chemical agents. The assay incorporates a fluorometric/colorimetric growth indicator based on detection of metabolic activity. The system incorporates an oxidation-reduction (redox) indicator that both fluoresces and changes color in response to chemical reduction of growth medium resulting from cell growth. This causes the redox indicator to change from its oxidized, non-fluorescent, blue form to its reduced, fluorescent, red form. Data can be collected using either fluorescence-based instrumentation (530-560 nm excitation wavelength and 590 nm emission wavelength) or absorbance-based instrumentation (570 nm and 600 nm).

B16-F10 melanoma cells = assay: Adhesion of B16-F10 melanoma cells to coated wells; format: cell-based; details: wells covered with 40 μg/ml
Procedure: An adhesion study was performed to evaluate the adhesion of B16-F10 melanoma cells (a nonresistant cell line) to doxorubicin and the doxorubicin-peptide conjugate of Example 1. In a 96 well plate, duplicate wells were covered with 40 μg/ml either TSP, Dox-P, the Cys(Acm)-Ser-Val-Thr-Cys(Acm)-Gly (SEQ ID NO: 6) peptide, Dox, the scrambled peptide Val-Cys-Thr-Gly-Ser-Cys (SEQ ID NO: 3), the Cys(Acm)Ser-Val-Thr-Cys-(Acm)-Gly (SEQ ID NO: 6) peptide with a d orientation, or 1% bovine serum albumin (BSA). The wells were dried out overnight and then blocked with BSA. 100 μl of a suspension containing 2×10^5 B16-F-10 melanoma cells were plated in the protein covered wells and incubated at 37° C. for 20 minutes to 1 hour. The non-adherent cells were removed and the wells were washed with a Hepes buffer. The adherent cells were fixed with 2.5% glutaraldehyde for 10 minutes and stained with 0.2% Giemsa. The stain was washed off and the cells were counted in a field of 1 mm square. Cells adhering to BSA were considered background.

[2] = system: Doxorubicin and multidrug-resistant CHO Cells; assay: Coadministration of peptides and doxorubicin on resistant CHO cells; format: cell-based; details: peptide coadministered with doxorubicin, not linked
Procedure: Doxorubicin and multidrug-resistant CHO cells were treated with a 7 coadministration of peptides and doxorubicin. In this example the peptides were not linked to the doxorubicin, but were only administered at the same time.

[3] = mice, 68 mg/kg (same number of doxorubicin molecules as Dox 30 mg/kg), 3 mice treated

## COc1cccc2c1C(=O)c1c(O)c3c(c(O)c1C2=O)C[C@@](O)(C(=O)CO)C[C@@H]3O[C@H]1C[C@H](N)[C@H](O)[C@H](C)O1 [Dox, doxorubicin, reference compound]
Human Breast Carcinoma
  In Vitro LD50: 1.0 mM
B16-F10 Melanoma
  In Vitro LD50: 0.30 mM
mice, 30 mg/kg, 3 mice treated
  Toxicity Results: survival: 3 mice died^1
mouse, in vivo, 30 mg/kg
  Toxicity Results: body weight change: significant weight loss
Lewis Lung Carcinoma
  In Vitro LD50: 0.20 mM
Melanoma tumor cells
  Melanoma tumor development (number of lung tumor colonies / lung metastasis): inhibit the development of lung metastasis; also recorded: effective at preventing tumor development
Wild-type CHO Cells; Wild-type CHO Cells, dose at which half of the cells die
  In Vitro LD50: 1.0 mM
[1]
  Effect on drug-resistant CHO cell viability (dose response): negligible effect

## COc1cccc2c1C(=O)c1c(O)c3c(c(O)c1C2=O)CC(O)(C(=O)CO)C[C@@H]3O[C@H]1C[C@H](NC(=O)CNC(=O)[C@H](CSCNC(C)=O)NC(=O)[C@@H](NC(=O)[C@@H](NC(=O)[C@H](CO)NC(=O)[C@H](CSCNC(C)=O)NC(C)=O)C(C)C)[C@@H](C)O)[C@H](O)[C@H](C)O1 (stereo partly drawn) [Dox-P] (Ac-C(Acm)SVTC(Acm)G-X1)
B16-F10 melanoma cells
  Adhesion of B16-F10 melanoma cells: does not destroy its adhesive activity
[3]
  Toxicity Results: body weight change: some small weight gain
  Toxicity Results: survival: 3 mice lived
Melanoma tumor cells
  Melanoma tumor development (number of lung tumor colonies / lung metastasis): inhibit the development of lung metastasis; also recorded: effective at preventing tumor development
Wild-type CHO Cells; 24 hours, 0.25-1.0 mM, compared with Dox alone
  Effect on wild-type CHO cell viability: appears to function more effectively against wild-type CHO cells than Dox alone
[1]
  Effect on drug-resistant CHO cell viability (dose response): dramatic dose-response effect

## ASVTAR
[2]
  Effect of peptide on doxorubicin toxicity of resistant CHO cells: shows a dose-response effect

## Cys(Acm)-Ser-Val-Thr-Cys(Acm)-Gly (C(Acm)SVTC(Acm)G) [thrombospondin-derived hexapeptide with cysteine sulfur protected by acetamidomethyl (Acm) groups]
[2]
  Effect of peptide on doxorubicin toxicity of resistant CHO cells: did not show any effect
Melanoma tumor cells
  Melanoma tumor development (number of lung tumor colonies / lung metastasis): lower number of tumors than buffer alone
Melanoma tumor cells; listed as peptide
  Melanoma tumor development (number of lung tumor colonies / lung metastasis): inhibit the development of lung metastasis
